From patent US20070191490A1, “Withacnistin compounds for treatment of cancer” (priority 2006, published 2007)
Several values for one entry are separate records, joined by “and”; a condition that tells them apart may be missing. Equal values may be shown once. Read-outs that look alike come from different tables or passages of the source.

Columns and labels:
phosphotyrosine-STAT3 = experiment: Inhibition of phosphotyrosine-STAT3 levels in tumor cell lines (Western blotting); type: cell-based, human
Method: (§1) Western blotting. Treated cell samples were lysed in 30 mM HEPES, pH 7.5, 10 mM NaCl, 5 mM MgCl2, 25 mM NaF, 1 mM EGTA, 1% Triton X-100, 10% glycerol, 2 mM sodium orthovanadate, 10 μg/ml aprotinin, 10μ/ml soybean trypsin inhibitor, 25 μg/ml leupeptin, 2 mM PMSF, and 6.4 mg/ml p-nitrophenylphosphate. Phospho-STAT3, phospho-AKT, phospho-Src, and phospho-p42/p44 MAPK antibodies were obtained from Cell Signaling Technologies (Cambridge, Mass., USA). Phospho-JNK and whole STAT3 antibodies were purchased from Santa Cruz Biotechnology (Santa Cruz, Calif., USA); phospho-JAK2 antibody came from Upstate Biotechnology (Lake Placid, N.Y., USA). Membranes were blocked in either 5% milk in phosphate-buffered saline (PBS), pH 7.4, containing 0.1% Tween-20 (PBS-T) or 1% BSA in tris-buffered saline (TBS), pH 7.5, containing 0.1% Tween-20 (TBS-T). Phospho-specific antibodies (excepting P-MAPK and P-JNK) were incubated in 1% BSA in TBS-T while all other antibodies were diluted in 5% milk in PBS-T for either 2 h at room temperature or overnight at 4° C. HRP-conjugated secondary antibodies (Jackson ImmunoResearch, West Grove, Pa., USA) were diluted in 5% milk in either PBS-T or TBS-T at 1:1000 dilution for 1 h at room temperature. Western blots were visualized using enhanced chemiluminescence.
(§2) To this end, A549 cells (a human non-small-cell lung carcinoma line) were treated with either vehicle, cucurbitacin analogs A, B, E, or I, or withacnistin mixture (10 ∥M) for 4 hours and the cell lysates processed for Western blotting with antiphosphotyrosine STAT3 (Y705) antibody or antiphosphotyrosine JAK2 (Y1007, Y1008) antibody as described under Materials and Methods.
(§3) As further support of the specific antiphosphotyrosine STAT3, but not antiphosphotyrosine JAK2, activity of withacnistin, A549 cells, as well as two breast carcinoma cell lines (MDA-MB-435 and MDA-MB-468) that also express constitutively activated JAK2 and STAT3, were treated with the withacnistin mixture at various concentrations, and determined IC50 values of inhibition of STAT3 and JAK2 activation.

phosphotyrosine-JAK2 = experiment: Inhibition of phosphotyrosine-JAK2 levels in tumor cell lines (Western blotting); type: cell-based, human; conditions: for levels of P-JAK2: A549 cells, 10 μM, 4 hours
Method: as §1, §2, §3

v-Src/3T3 tumors = experiment: Antitumor activity in nude mouse xenograft model, v-Src/3T3; type: in vivo; conditions: v-Src/3T3 xenograft, nude mice
From the text: (§4) Antitumor activity in the nude mouse tumor xenograft model. Nude mice (Charles River, Wilmington, Mass., USA) were maintained in accordance with the Institutional Animal Care and Use Committee (IACUC) procedures and guidelines. A549 cells were harvested, resuspended in PBS, and injected subcutaneously (s.c.) into the right and left flank (1×10^7 cells per flank) of 8-week-old female nude mice as reported previously (Blaskovich, M. A. et al. Cancer Res., 2003, 63:1270-1279). When tumors reached about 150 mm^3, animals were randomized (four animals per group; two tumors per animal) and dosed intraperitoneally (i.p.) either with cucurbitacin analogs (0.5 or 1 mg/kg/day, i.p.) in 20% DMSO in water or with an equal volume of vehicle control. The tumor volumes were determined by measuring the length (l) and the width (w) and calculating the volume (V=lw^2/2) as described previously (Blaskovich, M. A. et al. Cancer Res., 2003, 63:1270-1279). Statistical significance between control and treated animals were evaluated by using Student's t-test.
(§5) To determine the ability of the cucurbitacin analogs and withacnistin to inhibit tumor growth in vivo, the antitumor activity of the cucurbitacin analogs and withacnistin against both A549 and v-Src/3T3 tumors in a nude mouse xenograft model was evaluated. When the tumors became palpable (at volumes of approximately 100-150 mm^3), the mice were treated either with vehicle control or 1 mg/kg/day of the cucurbitacins or the withacnistin mixture. Tumor volumes were monitored by caliper measurement as previously described (Blaskovich, M. A. et al. Cancer Res., 2003, 63:1270-1279) and under Materials and Methods.
Withacnistin inhibited 57% of tumor growth while Cuc I, B, and E inhibited 45, 40, and 42% of tumor growth, respectively (FIG. 3 and Table 2).

A549 tumors = experiment: Antitumor activity in nude mouse xenograft model, A549; type: in vivo; conditions: nude mice
From the text: as §4, §5

[1] = 0.5 mg/kg/day i.p., 0.5 mg/kg/day
[2] = 1 mg/kg/day i.p., Wit = withacnistin mixture

Compound	P-STAT3 levels (phosphotyrosine-STAT3; A549 cells (FIG. 8A))	P-JAK2 levels (phosphotyrosine-JAK2; A549 cells (FIG. 8A))	% Inhibition of tumor growth (v-Src/3T3 tumors; [1])	levels of P-STAT3 (phosphotyrosine-STAT3)	% Inhibition of tumor growth (A549 tumors; [1])	levels of P-JAK2 (phosphotyrosine-JAK2)	% Inhibition of tumor growth (v-Src/3T3 tumors; [2]) [%]	levels of P-STAT3 (phosphotyrosine-STAT3; A549 cells, 10 μM, 4 hours)	% Inhibition of tumor growth (A549 tumors; [2]) [%]
3-ethoxy-2,3-dihydrowithacnistin [EDH-Wit]	suppressed neither	suppressed neither	–	–	–	–	–	–	–
CC(=O)OC(C)(C)/C=C/C(=O)[C@](C)(O)[C@H]1[C@H](O)C[C@@]2(C)[C@@H]3CC=C4[C@H](C[C@H](O)C(=O)C4(C)C)[C@]3(C)C(=O)C[C@]12C [Cuc B, cucurbitacin B]	–	–	40% and 40^a %	inhibited	53.6% and 53.6^b %	inhibited	–	–	–
CC(=O)OC(C)(C)/C=C/C(=O)[C@](C)(O)[C@H]1[C@H](O)C[C@@]2(C)[C@@H]3CC=C4[C@@H](C=C(O)C(=O)C4(C)C)[C@]3(C)C(=O)C[C@]12C [Cuc E, cucurbitacin E]	–	–	–	–	–	inhibited	42	inhibited	48.5
